Assay results reported in patent US20080287469A1, “Phosphoinositide 3-Kinase Inhibitors for Inhibiting Leukocyte Accumulation” (priority 2005, published 2008).

Legend:
[1] = biological target: EGF receptor tyrosine kinase (Homo sapiens, UniProt P00533); assay: Protein kinase/phosphatase panel: EGF receptor tyrosine kinase; format: biochemical; conditions: inhibitor 10 μM; 100 μM ATP
CDK2/cyclinA = CDK2/cyclinA (Homo sapiens, UniProt P24941); assay: Protein kinase/phosphatase panel: CDK2/cyclinA; format: biochemical; conditions: inhibitor 10 μM; 100 μM ATP
neutrophils = assay: Neutrophil chemotaxis across bare filter insert (Transwell) to LTB4; format: cell-based, mouse
Method: Neutrophil chemotaxis experiments were conducted as described [Roth et al., J. Immunoi. Methods, 188:97-116 (1995)]. Briefly, purified human neutrophils were incubated with DMSO (0.3% v/v) or an inhibitor in accordance with the invention reconstituted in DMSO (0.3%) for 20 minutes at room temperature. Cells were added to bare filter inserts (Transwell™ 5 μm pore size; Corning Costar, Cambridge, Mass.), that were placed into wells containing chemoattractants or control medium of a Ultra low 24-well cluster plate, and incubated for 1 hour at 37° C. in a 5% CO2 humidified environment. The number of neutrophils that migrated into the bottom well was determined by FACScan (Becton Dickinson, San Jose, Calif.). Results were expressed as percent neutrophil migration relative to the control (medium without inhibitor).
A dose response curve was generated to determine the concentration of LTB4 necessary to support half-maximal migration across a bare filter insert. Maximal transmigration for neutrophils purified from mouse bone marrow occurred between 100 to 250 nM of LTB4. […] Tager et al., J Exp. Med., 192:439-46 (2000). Treatment of WT neutrophils with 2 μM inhibitor in accordance with the invention diminished migration in response to LTB4 (30 nM) by ˜30%, a value equivalent to that observed for PI3Kδ deficient cells.

CK1 = conditions: inhibitor 10 μM; reported by Sadhu et al.; cited from earlier work
[2] = biological target: CD45 tyrosine phosphatase (Homo sapiens, UniProt P08575); assay: Protein kinase/phosphatase panel: CD45 tyrosine phosphatase; format: biochemical; conditions: inhibitor 10 μM
Sequence of CD45 tyrosine phosphatase (P08575 26-1306): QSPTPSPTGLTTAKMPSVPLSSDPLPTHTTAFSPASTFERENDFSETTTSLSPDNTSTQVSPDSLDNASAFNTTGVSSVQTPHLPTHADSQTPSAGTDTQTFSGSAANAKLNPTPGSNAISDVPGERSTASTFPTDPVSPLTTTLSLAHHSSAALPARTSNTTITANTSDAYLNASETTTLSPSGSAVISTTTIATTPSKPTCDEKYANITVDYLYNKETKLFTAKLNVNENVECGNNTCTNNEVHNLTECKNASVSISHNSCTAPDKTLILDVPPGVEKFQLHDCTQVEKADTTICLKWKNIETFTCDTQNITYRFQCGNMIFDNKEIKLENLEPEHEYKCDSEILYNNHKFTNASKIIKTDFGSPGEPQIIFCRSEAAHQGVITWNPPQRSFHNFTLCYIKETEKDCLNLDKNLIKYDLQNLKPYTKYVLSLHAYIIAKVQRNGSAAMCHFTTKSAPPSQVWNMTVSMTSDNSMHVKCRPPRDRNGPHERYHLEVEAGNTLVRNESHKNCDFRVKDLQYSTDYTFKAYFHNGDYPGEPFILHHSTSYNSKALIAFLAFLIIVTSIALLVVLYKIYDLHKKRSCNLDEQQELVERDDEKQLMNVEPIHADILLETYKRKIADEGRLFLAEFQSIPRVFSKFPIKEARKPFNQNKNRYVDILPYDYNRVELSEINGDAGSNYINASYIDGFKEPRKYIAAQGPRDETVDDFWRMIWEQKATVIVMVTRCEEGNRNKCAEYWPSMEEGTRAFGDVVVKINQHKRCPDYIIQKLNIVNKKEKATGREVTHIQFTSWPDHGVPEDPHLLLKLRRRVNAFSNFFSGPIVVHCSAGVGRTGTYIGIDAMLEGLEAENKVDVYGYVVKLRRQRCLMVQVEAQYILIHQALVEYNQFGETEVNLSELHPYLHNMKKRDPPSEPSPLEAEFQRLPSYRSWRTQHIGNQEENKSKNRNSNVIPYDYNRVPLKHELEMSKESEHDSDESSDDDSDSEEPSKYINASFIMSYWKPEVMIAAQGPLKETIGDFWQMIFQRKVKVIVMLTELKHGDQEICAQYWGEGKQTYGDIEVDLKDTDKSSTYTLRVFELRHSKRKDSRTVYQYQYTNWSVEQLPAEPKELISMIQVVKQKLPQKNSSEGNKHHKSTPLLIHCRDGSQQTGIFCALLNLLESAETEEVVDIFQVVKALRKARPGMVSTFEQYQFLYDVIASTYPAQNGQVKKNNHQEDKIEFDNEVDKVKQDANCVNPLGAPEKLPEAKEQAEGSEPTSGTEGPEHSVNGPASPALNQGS

Sequence of EGF receptor tyrosine kinase (P00533 25-1210): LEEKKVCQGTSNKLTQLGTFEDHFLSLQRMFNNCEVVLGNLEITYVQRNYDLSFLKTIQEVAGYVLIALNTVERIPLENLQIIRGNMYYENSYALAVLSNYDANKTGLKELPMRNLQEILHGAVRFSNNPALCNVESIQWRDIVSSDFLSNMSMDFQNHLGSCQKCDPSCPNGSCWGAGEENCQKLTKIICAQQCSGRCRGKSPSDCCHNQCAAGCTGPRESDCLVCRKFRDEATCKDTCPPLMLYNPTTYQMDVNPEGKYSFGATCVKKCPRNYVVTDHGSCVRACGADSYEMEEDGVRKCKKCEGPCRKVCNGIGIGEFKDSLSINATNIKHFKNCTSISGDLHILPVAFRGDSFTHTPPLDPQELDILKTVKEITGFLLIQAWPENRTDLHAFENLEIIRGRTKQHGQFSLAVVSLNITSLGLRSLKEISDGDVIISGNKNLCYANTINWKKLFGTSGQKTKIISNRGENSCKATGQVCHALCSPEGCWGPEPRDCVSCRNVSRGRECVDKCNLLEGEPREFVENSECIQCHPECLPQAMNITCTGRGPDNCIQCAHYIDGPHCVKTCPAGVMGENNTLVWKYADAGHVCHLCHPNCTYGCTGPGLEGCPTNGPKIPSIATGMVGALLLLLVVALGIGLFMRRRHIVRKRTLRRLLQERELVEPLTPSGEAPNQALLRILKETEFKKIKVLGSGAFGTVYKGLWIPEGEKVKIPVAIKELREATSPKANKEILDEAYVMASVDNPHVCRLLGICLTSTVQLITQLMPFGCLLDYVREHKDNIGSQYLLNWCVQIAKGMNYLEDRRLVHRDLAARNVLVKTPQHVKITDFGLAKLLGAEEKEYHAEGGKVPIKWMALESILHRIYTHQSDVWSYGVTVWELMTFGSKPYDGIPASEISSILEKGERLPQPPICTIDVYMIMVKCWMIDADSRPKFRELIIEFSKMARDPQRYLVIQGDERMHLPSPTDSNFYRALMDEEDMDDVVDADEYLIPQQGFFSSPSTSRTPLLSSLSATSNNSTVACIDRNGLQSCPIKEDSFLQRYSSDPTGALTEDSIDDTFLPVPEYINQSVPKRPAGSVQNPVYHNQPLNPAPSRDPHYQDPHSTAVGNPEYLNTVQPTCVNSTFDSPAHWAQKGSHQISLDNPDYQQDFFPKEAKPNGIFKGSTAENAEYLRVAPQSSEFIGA

SMILES: Cc1ccccc1-n1c(Cn2cnc3c(N)ncnc32)nc2cccc(C)c2c1=O
- Activity (% of control) ± SD [1]: 102 ± 5.5 % of control
- Activity (% of control) ± SD (CDK2/cyclinA): 92.5 ± 2.12 % of control
- diminished migration in response to LTB4 (neutrophils; 2 μM, LTB4 30 nM, WT neutrophils): ~30%
- chemotaxis of cells lacking PI3Kδ (neutrophils; identical concentration (2 μM), PI3Kδ deficient cells): no further effects on chemotaxis
- Activity (% of control) ± SD (CK1): No inhibition*
- Activity (% of control) ± SD [2]: 104 ± 2.2 % of control
